Assay results reported in PubChem BioAssay (NCI).
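How tested: cells in 96-well plates exposed to compound for 48 hours at five concentrations. GI50: concentration for 50% inhibition of growth. TGI marks complete inhibition of growth.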

Experiments:
Assay in all cases: inhibition of tumour cell growth, NCI panel, 48 h
CCRF-CEM leukemia = tested on: CCRF-CEM leukemia
SNB-75 CNS = tested on: SNB-75 CNS
NCI-H522 lung = tested on: NCI-H522 lung
M14 melanoma = tested on: M14 melanoma
HCC-2998 colon = tested on: HCC-2998 colon
UACC-62 melanoma = tested on: UACC-62 melanoma
HCT-116 colon = tested on: HCT-116 colon
SF-268 CNS = tested on: SF-268 CNS
CAKI-1 renal = tested on: CAKI-1 renal
RXF 393 renal = tested on: RXF 393 renal

Row | Structure (SMILES) | GI50 (CCRF-CEM leukemia) [µM] | TGI (CCRF-CEM leukemia) [µM] | GI50 (SNB-75 CNS) [µM] | TGI (SNB-75 CNS) [µM] | GI50 (NCI-H522 lung) [µM] | TGI (NCI-H522 lung) [µM] | GI50 (M14 melanoma) [µM] | TGI (M14 melanoma) [µM] | GI50 (HCC-2998 colon) [µM] | TGI (HCC-2998 colon) [µM] | GI50 (UACC-62 melanoma) [µM] | TGI (UACC-62 melanoma) [µM] | GI50 (HCT-116 colon) [µM] | TGI (HCT-116 colon) [µM] | GI50 (SF-268 CNS) [µM] | TGI (SF-268 CNS) [µM] | TGI (CAKI-1 renal) [µM] | TGI (RXF 393 renal) [µM] | GI50 (CAKI-1 renal) [µM]
1 | Cc1ccc2[nH]cc(-c3nc(-c4c[nH]c5ncccc45)cs3)c2c1 | > 100 | > 100 | > 100 | > 100 | > 100 | > 100 | > 100 | > 100 | > 100 | > 100 | > 100 | > 100 | > 100 | > 100 | > 100 | > 100 | – | – | –
2 | O=C1C(Br)=CC2([N+](=O)[O-])CCNc3c(O)c4c5c(c3C2=C1Br)=NCCC=5C=N4 (stereo unspecified) | – | 1.41 | – | 20.5 | – | 0.214 | – | – | – | 13.2 | – | 3.14 | – | 1.09 | – | 6.27 | 5.25 | 7.76 | –
3 | COc1ccc2[nH]c(C(=O)N3CC(CCl)c4ccc(N)cc43)cc2c1 (stereo unspecified) | – | 1.44 | – | 0.475 | – | 0.0882 | – | 0.319 | – | 0.383 | – | 0.376 | – | – | – | – | 0.299 | 0.251 | –
4 | CC(=O)O[C@H]1CC[C@@]2(C)C(=CC[C@@H]3[C@@H]2CC[C@]2(C)C(c4cccnc4)=CC[C@@H]32)C1 | 16.7 | > 100 | 2.6 | 15.6 | 38.5 | > 100 | 5.67 | > 100 | 14 | > 100 | – | – | 4.49 | > 100 | 9.61 | > 100 | > 100 | – | 8.38
5 | N/N=C(\C(=O)Nc1c(Cl)cc([N+](=O)[O-])cc1Cl)C(c1cnc2ccc([N+](=O)[O-])cc2n1)[N+](=O)[O-] (stereo unspecified) | – | > 100 | – | > 100 | – | 53.3 | – | – | – | > 100 | – | > 100 | – | > 100 | – | > 100 | > 100 | > 100 | –
6 | CC(=O)OC(Cc1cc(C=C(C(F)(F)F)C(F)(F)F)cc(C)n1)(C(F)(F)F)C(F)(F)F | – | – | – | 7.02 | – | – | – | 4.08 | – | 13.3 | – | 3.54 | – | 2.91 | – | 5.81 | 3.45 | 2.4 | –
7 | CCCC/C=C1\CCC(CN2CCCCC2)C1=O (stereo unspecified) | – | 16.2 | – | > 100 | – | – | – | 24.4 | – | 22.6 | – | 24.8 | – | 36.7 | – | 51.6 | 17.8 | 18.1 | –
8 | COC(=O)/C=C\Sc1ccn(/C=C\C(=O)OC)c(=S)n1 | – | > 100 | – | 43.1 | – | 31.4 | – | > 100 | – | > 100 | – | – | – | – | – | 65.9 | 31.9 | 23.3 | –
9 | COc1ccc2c3c1OC1CC(O)C=CC31CCN(C)C2 (stereo unspecified) | – | > 150 | – | > 150 | – | > 150 | – | – | – | > 150 | – | > 150 | – | > 150 | – | > 91.8 | > 150 | > 150 | –
10 | CN(C)c1ccc(N2C(=S)SC(=Nc3ccccc3)C2=Nc2ccccc2)cc1 | – | > 100 | – | > 100 | – | > 100 | – | > 100 | – | > 100 | – | > 100 | – | > 100 | – | – | > 100 | > 100 | –
11 | O=C(Nc1ccccc1F)c1c(O)nc2sccn2c1=O | – | > 10 | – | > 10 | – | > 10 | – | > 10 | – | > 10 | – | > 10 | – | > 10 | – | > 10 | > 10 | > 10 | –
